Assay in all cases: Antitumor bioactivity evaluation, breast cancer cells (ATPlite)
On the technique in general: Cellular ATP, detected with luciferase, serves as a proxy for viable cell number.

Assay [1] has as its system SK/Lap^R1.0. Type of assay: cell-based. The note with it: Homo sapiens; test sample 5 μM, 72 hours; read-out: Inhibitory Rate % SKLap^R1.0. The method, boiled down:
(§1)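 5000 cells/well, 24 h adhesion; cpd 5 μM final ± lapatinib 1 μM final; 72 h, 37 °C; ATPlite luminescence; survival % = sample RLU/control RLU ×100; 5 replicate wells.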

For assay [2], the system named is MDA-MB-453. The class given is cell-based. The conditions noted are these: Homo sapiens, test sample 5 μM, 72 hours, read-out: Inhibitory Rate % MDA-MB-453. The gist of the method:
as §1

Assay [3] relates to BT474. The class given is cell-based. The note with it: Homo sapiens, BT-474; test sample 5 μM, 72 hours; read-out: Inhibitory Rate % BT474. The gist of the method: as §1
The test system of assay [4] is MDA-MB-361. The class given is cell-based. The conditions noted are these: Homo sapiens, test sample 5 μM, 72 hours, read-out: Inhibitory Rate % MDA-MB-361. The gist of the method: as §1
Assay [5] relates to SK-BR3. The class given is cell-based. The conditions noted are these: Homo sapiens, SK-BR-3; test sample 5 μM, 72 hours; read-out: Inhibitory Rate % SK-BR3. The gist of the method:
as §1

Assay [6] relates to BT/Lap^R1.0. The class given is cell-based, human. The conditions noted are these: Homo sapiens; test sample 5 μM, 72 hours; read-out: Inhibitory Rate % BT/Lap^R1.0. The method, boiled down:
as §1

As to `Clc1ncc(CN2CCC(NCc3ccc(Cl)c(Cl)c3)CC2)s1` [Example 11, N-(3,4-dichlorobenzyl)-N-{1-[(2-chlorothiazol-5-yl)methyl]piperidin-4-yl}amine], the inhibition at 5 µM was 25.1% in assay [1]; 32.9% in assay [2]; 11% in assay [3]; 13.9% in assay [4]; 26.3% in assay [5]; 10.6% in assay [6].

With `COc1cc(N2CCC(N(C)Cc3ccc(C)cc3)CC2)ncn1` [Example 59, N-methyl-N-(4-methylbenzyl)-N-[1-(6-methoxypyrimidin-4-yl)piperidin-4-yl]amine], the inhibition at 5 µM is 22% in assay [1]; 13.4% in assay [2]; 5% in assay [3]; 10.6% in assay [4]; 20.6% in assay [5]; 8% in assay [6].

Take `COc1cc(N2CCC(N(C)Cc3ccccc3C#N)CC2)ncn1` [Example 65, N-methyl-N-(2-cyanobenzyl)-N-[1-(6-methoxypyrimidin-4-yl)piperidin-4-yl]amine]: the inhibition at 5 µM in assay [1] is 16.8%; in assay [2] it was 66.1%; in assay [3], 65.8%; in assay [4], 42.7%; in assay [5], 23.3%; in assay [6], 62.2%.

On to `CN(Cc1ccc(C#N)cc1)C1CCN(Cc2cnc(Cl)s2)CC1` [Example 15, N-methyl-N-(4-cyanobenzyl)-N-{1-[(2-chlorothiazol-5-yl)methyl]piperidin-4-yl}amine], for which the inhibition at 5 µM in assay [1] was 7.5%; in assay [2], 68.5%; in assay [3], 69.3%; in assay [4], 35.6%; in assay [5], 41.5%; in assay [6], 68.7%.

`COc1cc(N2CCC(N(C)Cc3ccccc3Cl)CC2)ncn1` [Example 58, N-methyl-N-(2-chlorobenzyl)-N-[1-(6-methoxypyrimidin-4-yl)piperidin-4-yl]amine]: the inhibition at 5 µM in assay [1] stood at 29%; in assay [2], 46.7%; in assay [3], 27.7%; in assay [4], 20.3%; in assay [5] it was 13.5%; in assay [6], 18.9%.

`CSc1nccc(N2CCC(N(C)Cc3cccc(F)c3)CC2)n1` [Example 45, N-methyl-N-(3-fluorobenzyl)-N-[1-(2-methylthiopyrimidin-4-yl)piperidin-4-yl]amine]: the inhibition at 5 µM came to 34.2% in assay [1]; 45.3% in assay [2]; 21.3% in assay [3]; 36.2% in assay [4]; 22.2% in assay [5]; 17.5% in assay [6].

As for `CSc1nccc(N2CCC(N(C)Cc3cccc(Cl)c3)CC2)n1` [Example 39, N-methyl-N-(3-chlorobenzyl)-N-[1-(2-methylthiopyrimidin-4-yl)piperidin-4-yl]amine], the inhibition at 5 µM in assay [1] came to 24.4%; in assay [2], 65.7%; in assay [3] it was 35.1%; in assay [4] it was 39.1%; in assay [5], 26.4%; in assay [6] it was 25.1%.

On to `CN(Cc1ccc(F)cc1)C1CCN(Cc2cnc(Cl)s2)CC1` [Example 16, N-methyl-N-(4-fluorobenzyl)-N-{1-[(2-chlorothiazol-5-yl)methyl]piperidin-4-yl}amine], for which the inhibition at 5 µM in assay [1] is -0.1%; in assay [2], 11%; in assay [3], 7.1%; in assay [4], -1.3%; in assay [5] it was 18.6%; in assay [6] it was 9%.

As to `CNC1CCN(c2nccc(OC)n2)CC1` [Example 46, N-methyl-N-[1-(4-methoxypyrimidin-2-yl)piperidin-4-yl]amine], the inhibition at 5 µM in assay [1] came out at 71%; in assay [2], 79.2%; in assay [3], 73.1%; in assay [4], 53.2%; in assay [5], 85.9%; in assay [6], 70%.

As to `CN(Cc1c(Cl)cccc1Cl)C1CCN(Cc2cnc(Cl)s2)CC1` [Example 24, N-methyl-N-(2,6-dichlorobenzyl)-N-{[1-(2-chlorothiazol-5-yl)methyl]piperidin-4-yl}amine], the inhibition at 5 µM was determined as 8.5% in assay [1]; 21.1% in assay [2]; 11.1% in assay [3]; 10.2% in assay [4]; 19% in assay [5]; 7.1% in assay [6].

On to `CSc1ncc(CN2CCC(N(C)Cc3c(Cl)cccc3Cl)CC2)s1` [Example 32, N-methyl-N-(2,6-dichlorobenzyl)-N-{1-[(2-methylthiothiazol-5-yl)methyl]piperidin-4-yl}amine], for which the inhibition at 5 µM in assay [1] amounted to 26.8%; in assay [2], 63.7%; in assay [3], 54.9%; in assay [4], 45.2%; in assay [5], 24.3%; in assay [6], 54.9%.

Turning to `COc1nccc(N2CCC(N(C)Cc3cccc(Cl)c3)CC2)n1` [Example 55, N-methyl-N-(3-chlorobenzyl)-N-[1-(2-methoxypyrimidin-4-yl)piperidin-4-yl]amine], the inhibition at 5 µM in assay [1] is 15.1%; in assay [2], 56.7%; in assay [3] it was 36.2%; in assay [4], 23.2%; in assay [5] it was 18.5%; in assay [6], 26.2%.

For `CCOc1ncc(CN2CCC(N(C)Cc3ccccc3C#N)CC2)s1` [Example 2, N-methyl-N-o-cyanobenzyl-N-{1-[(2-ethoxythiazol-5-yl)methyl]piperidin-4-yl}amine], the inhibition at 5 µM in assay [1] stood at 7.2%; in assay [2], 43.8%; in assay [3], 17.6%; in assay [4] it was 12.3%; in assay [5], 13.6%; in assay [6], 19.4%.

With `COc1cc(N2CCC(N(C)Cc3c(Cl)cccc3Cl)CC2)ncn1` [Example 60, N-methyl-N-(2,6-dichlorobenzyl)-N-[1-(6-methoxypyrimidin-4-yl)piperidin-4-yl]amine], the inhibition at 5 µM in assay [1] came out at 19.2%; in assay [2], 65.1%; in assay [3] it was 53.6%; in assay [4], 30.8%; in assay [5] it was 22.8%; in assay [6], 52.5%.

Regarding `CCOc1ncc(CN2CCC(N(C)Cc3ccc(Cl)c(Cl)c3)CC2)s1` [Example 3, N-methyl-N-(3,4-dichlorobenzyl)-N-{1-[(2-ethoxythiazol-5-yl)methyl]piperidin-4-yl}amine], the inhibition at 5 µM in assay [1] came to 13.1%; in assay [2], 71.6%; in assay [3] it was 62.9%; in assay [4] it was 35.8%; in assay [5] it was 41.2%; in assay [6] it was 67.4%.

Regarding `COc1nccc(N2CCC(N(C)Cc3ccccc3Cl)CC2)n1` [Example 43, N-methyl-N-(2-chlorobenzyl)-N-[1-(2-methoxypyrimidin-4-yl)piperidin-4-yl]amine], the inhibition at 5 µM was found to be 29.4% in assay [1]; 69.3% in assay [2]; 61% in assay [3]; 45.7% in assay [4]; 19.3% in assay [5]; 56.9% in assay [6].

Consider `CCOc1ncc(CN2CCC(N(C)Cc3c(F)cccc3Cl)CC2)s1` [Example 5, N-methyl-N-(2-fluoro-6-chlorobenzyl)-N-{1-[(2-ethoxythiazol-5-yl)methyl]piperidin-4-yl} amine], for which the inhibition at 5 µM was 11.7% in assay [1]; 67.4% in assay [2]; 54.4% in assay [3]; 32.8% in assay [4]; 40.9% in assay [5]; 50.5% in assay [6].

For `CSc1nccc(N2CCC(N(C)Cc3ccccc3C#N)CC2)n1` [Example 41, N-methyl-N-(2-cyanobenzyl)-N-[1-(2-methylthiopyrimidin-4-yl)piperidin-4-yl]amine], the inhibition at 5 µM in assay [1] came to 42%; in assay [2] it was 66.6%; in assay [3], 69.2%; in assay [4] it was 55.7%; in assay [5], 38.9%; in assay [6], 65.8%.

For `COc1nccc(N2CCC(N(C)Cc3ccc(C#N)cc3)CC2)n1` [Example 48, N-methyl-N-(4-cyanobenzyl)-N-[1-(2-methoxypyrimidin-4-yl)piperidin-4-yl]amine], the inhibition at 5 µM in assay [1] amounted to 74.3%; in assay [2] it was 79.5%; in assay [3], 71.6%; in assay [4], 53.3%; in assay [5], 86.5%; in assay [6] it was 72.7%.

`CCOc1ncc(CN2CCC(N(C)Cc3ccccc3Cl)CC2)s1` [Example 6, N-methyl-N-(2-chlorobenzyl)-N-{1-[(2-ethoxythiazol-5-yl)methyl]piperidin-4-yl}amine]: the inhibition at 5 µM in assay [1] was 0.6%; in assay [2], 36.4%; in assay [3] it was 10.1%; in assay [4] it was 33.3%; in assay [5] it was 12.6%; in assay [6] it was 13.3%.

For the origin of these results see US10023565B2, “N,N′ substituted piperidinamine compounds, and preparation method and usage thereof” (Institute of Pharmacology and Toxicology Academy of …, priority 2013, dated 2018).
